Measurements published in patent publication US20210002231A1 (Centre National de la Recherche Scientifique, priority 2018, published 2021).
Starred links: 1 amine or outer side, 2 acyl side, 3 side chain; linkers in the order of their positions; H or OH if unused. Non-standard residues stand in square brackets, D forms with d. Residues, ends and D or L forms follow the SMILES beside them. *: point of attachment. Nva(5-(4-Bn-piperidin-1-yl)) = N[C@@H](CCCN1CCC(Cc2ccccc2)CC1)C(=O)O; X5 = O=C1[C@@H](N[*:1])Cc2ccccc2CN1CCCC(=O)[*:2]; X1 = O=C1[C@@H](N[*:1])Cc2ccccc2CN1CCC(=O)[*:2]; Tic(7-OH) = O=C(O)[C@@H]1Cc2ccc(O)cc2CN1; Dmt = Cc1cc(O)cc(C)c1C[C@H](N)C(=O)O; d(hArg) = N=C(N)NCCCC[C@@H](N)C(=O)O; NMeβAla = CN(CCC(=O)[*:2])[*:1]; Nicotinoyl = O=C(c1cccnc1)*; dOrn = NCCC[C@@H](N)C(=O)O; dNMeA = CN[C@H](C)C(=O)O

What was measured:
human NPFF1R = human NPFF1R (Homo sapiens, UniProt Q9GZQ6); experiment: Radioligand competition binding with [125I]-1-DMe-NPFF; design: expressed in transfected cells; HEK293-Glo20F cells (cAMP)
human MOPr [1] = target: T1, human MOPr (Homo sapiens, UniProt P35372); experiment: cell-based; type: cell-based; design: expressed in transfected cells; HEK293-Glo20F cells (cAMP); settings: for Emax: read-out: MOPr (cAMP) Emax; for MOPr-induced G protein activation: in words
Method: Stimulation by endogenous RF-amide peptides or test compounds for [^35S]-GTPγS binding to membranes from CHO cells expressing human NPFF1R or NPFF2R, were examined as reported. 1.6. Glo-Sensor cAMP Assay cAMP accumulation assay was essentially done as described with the following modifications: HEK293 cells stably expressing cAMP Glosensor-20F were used, with or without additional stable expression of each individual opioid receptor or NPFF1R. The cAMP responses were measured in presence of D-luciferin (1 mM).

human MOPr [2] = target: T1, human MOPr; experiment: BRET1 β-arrestin-2 recruitment assay; type: cell-based; design: expressed in transfected cells; host or cells: HEK293 cells stably expressing eYFP-β-arrestin-2, transiently transfected with the Rluc8-MOP plasmid; settings: for Emax: read-out: MOPr (β-arrestin-2) Emax; for β-arrestin-2 recruitment: in words;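 for Emax: Emax relative to maximal DAMGO-induced BRET as 100%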;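 for MOPr (β-arrestin-2) Emax: Emax relative to maximal DAMGO-induced BRET as 100%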
Method: Peak response amplitudes were normalized to basal and maximal (cells permeabilized with 20 μM digitonin) fluorescence levels. 1.8. β-Arrestin-2 recruitment assay The β-arrestin-2 recruitment assay was performed as described [34; 45] with minor modifications. Briefly, two days prior the experiment, HEK293 cells stably expressing eYFP-tagged β-arrestin-2 were transfected with the plasmid encoding Rluc8-MOP receptor. β-Arrestin-2 recruitment was measured at 37° C. in presence of 5 μM Coelenterazine H, 5 min after agonist addition.

NPFF2R = NPFF2R (Homo sapiens, UniProt Q9Y5X5); experiment: Radioligand competition binding with [125I]-1-DMe-NPFF; design: expressed in transfected cells; HEK293-Glo20F cells (cAMP)
[3] = Table 3B, read-out: MOPr (cAMP) EC50
[4] = Table 3B, — = non-detectable recruitment, read-out: MOPr (β-arrestin-2) EC50
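Throughout, for MOPr (cAMP) Emax: Emax relative to DAMGO as 100%.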

Chain of human NPFF1R (Q9GZQ6 whole entry): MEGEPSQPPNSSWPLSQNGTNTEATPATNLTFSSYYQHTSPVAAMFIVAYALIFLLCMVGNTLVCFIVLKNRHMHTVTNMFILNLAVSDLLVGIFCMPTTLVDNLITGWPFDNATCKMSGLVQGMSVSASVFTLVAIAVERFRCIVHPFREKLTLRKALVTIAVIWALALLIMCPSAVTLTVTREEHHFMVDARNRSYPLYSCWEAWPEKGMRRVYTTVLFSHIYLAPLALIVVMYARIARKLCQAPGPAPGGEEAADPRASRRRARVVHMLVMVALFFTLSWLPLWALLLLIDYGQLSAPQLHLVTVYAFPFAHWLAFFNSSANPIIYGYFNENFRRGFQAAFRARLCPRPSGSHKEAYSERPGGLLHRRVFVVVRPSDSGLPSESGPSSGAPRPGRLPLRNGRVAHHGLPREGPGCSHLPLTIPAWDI
T1 sequence (P35372 whole entry): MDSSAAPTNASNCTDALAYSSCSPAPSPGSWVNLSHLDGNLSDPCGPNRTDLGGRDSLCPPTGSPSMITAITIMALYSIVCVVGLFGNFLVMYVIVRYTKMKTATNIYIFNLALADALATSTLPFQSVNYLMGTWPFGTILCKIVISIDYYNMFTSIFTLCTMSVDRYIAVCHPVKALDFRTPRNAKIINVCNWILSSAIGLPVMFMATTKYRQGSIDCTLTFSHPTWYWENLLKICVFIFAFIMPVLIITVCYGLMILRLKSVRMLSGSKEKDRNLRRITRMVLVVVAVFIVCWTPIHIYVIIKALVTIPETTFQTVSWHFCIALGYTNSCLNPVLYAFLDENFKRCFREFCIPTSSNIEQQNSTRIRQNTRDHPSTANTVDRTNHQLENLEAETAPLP
Chain of NPFF2R (Q9Y5X5 whole entry): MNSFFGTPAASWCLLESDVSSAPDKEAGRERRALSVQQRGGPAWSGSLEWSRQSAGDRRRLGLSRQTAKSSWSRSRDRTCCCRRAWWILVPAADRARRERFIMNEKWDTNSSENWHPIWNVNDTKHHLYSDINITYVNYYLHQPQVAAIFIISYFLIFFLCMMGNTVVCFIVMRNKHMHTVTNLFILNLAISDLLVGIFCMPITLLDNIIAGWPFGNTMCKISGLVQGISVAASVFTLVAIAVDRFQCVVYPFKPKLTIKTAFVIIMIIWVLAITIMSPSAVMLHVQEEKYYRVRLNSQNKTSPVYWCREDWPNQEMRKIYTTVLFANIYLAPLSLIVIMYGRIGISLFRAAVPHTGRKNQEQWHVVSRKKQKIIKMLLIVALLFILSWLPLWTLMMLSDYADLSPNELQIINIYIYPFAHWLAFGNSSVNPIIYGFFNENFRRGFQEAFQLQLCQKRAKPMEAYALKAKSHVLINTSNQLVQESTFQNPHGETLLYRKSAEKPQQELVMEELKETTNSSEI

Compound	IC50 (human NPFF1R) [nM]	EC50 (human MOPr [1]; [3]) [nM]	Emax (human MOPr [1]) [%]	EC50 (human MOPr [2]; [4]) [nM]	Emax (human MOPr [2]) [%]	IC50 (NPFF2R) [nM]	MOPr-induced G protein activation (human MOPr [1])	β-arrestin-2 recruitment (human MOPr [2])	EC50 (human MOPr [2]) [nM]	EC50 (human MOPr [1]; MOPr (cAMP) EC50, Table 3B) [nM]
Cc1cc(O)cc(C)c1C[C@H](N)C(=O)N[C@H](CCCNC(=N)N)C(=O)N[C@H]1Cc2ccccc2CN(CCC(=O)N[C@@H](CCCN2CCC(Cc3ccccc3)CC2)C(=O)N[C@@H](Cc2ccc(O)cc2)C(N)=O)C1=O [DP0004, H-Dmt-D-Arg-Aba-β-Ala-Bpa-Tyr-NH2] (H-[Dmt][dR][X1][Nva(5-(4-Bn-piperidin-1-yl))]Y-NH2)	50 to 500	4.2 ± 0.7	88 ± 4	126	64	< 50	–	–	–	–
Cc1cc(O)cc(C)c1C[C@H](N)C(=O)N[C@H](CCCNC(=N)N)C(=O)N[C@H]1Cc2ccccc2CN(CCC(=O)N[C@@H](CCCN2CCC(Cc3ccccc3)CC2)C(=O)N[C@@H](Cc2c[nH]c3ccccc23)C(N)=O)C1=O [DP0005, H-Dmt-D-Arg-Aba-β-Ala-Bpa-Trp-NH2] (H-[Dmt][dR][X1][Nva(5-(4-Bn-piperidin-1-yl))]W-NH2)	~50	7.9 ± 0.5	81 ± 0.6	98	42	< 50	–	–	–	–
Cc1cc(O)cc(C)c1C[C@H](N)C(=O)N[C@H](CCCNC(=N)N)C(=O)N[C@H]1Cc2c(ccc3ccccc23)CN(CC(=O)N[C@@H](CCCN2CCC(Cc3ccccc3)CC2)C(=O)N[C@@H](Cc2ccccc2)C(N)=O)C1=O [DP0012, H-Dmt-D-Arg-1AnaGly-Bpa-Phe-NH2]	< 40	15.1 ± 0.4	90 ± 2	650	22	< 40	–	–	–	–
Cc1cc(O)cc(C)c1C[C@H](N)C(=O)N[C@H](CCCNC(=N)N)C(=O)N[C@@H](Cc1ccccc1)C(=O)N(C)CCC(=O)N[C@@H](CCCN1CCC(Cc2ccccc2)CC1)C(=O)N[C@@H](Cc1ccccc1)C(N)=O [DP0013, H-Dmt-D-Arg-Phe-N(Me)-β-Ala-Bpa-Phe-NH2] (H-[Dmt][dR]F[NMeβAla][Nva(5-(4-Bn-piperidin-1-yl))]F-NH2)	< 40	0.53 ± 0.004	115 ± 4	20.5	101	~40	–	–	–	–
Cc1cc(O)cc(C)c1C[C@H](N)C(=O)N(C)[C@H](C)C(=O)N[C@H]1Cc2c(ccc3ccccc23)CN(CC(=O)N[C@@H](CCCN2CCC(Cc3ccccc3)CC2)C(=O)N[C@@H](Cc2ccccc2)C(N)=O)C1=O [DP0014, H-Dmt-N(Me)-D-Ala-1AnaGly-Bpa-Phe-NH2]	< 40	5.3	76	–	–	~40	significant	non-detectable	–	–
Cc1cc(O)cc(C)c1C[C@H](N)C(=O)N[C@H](CCCNC(=N)N)C(=O)N[C@H]1Cc2ccccc2CN(CCCC(=O)N[C@@H](CCCN2CCC(Cc3ccccc3)CC2)C(=O)N[C@@H](Cc2ccccc2)C(N)=O)C1=O [DP0018, H-Dmt-D-Arg-AbaGABA-Bpa-Phe-NH2] (H-[Dmt][dR][X5][Nva(5-(4-Bn-piperidin-1-yl))]F-NH2)	40 to 400	5.5	108	95.8	31	< 40	–	–	–	–
Cc1cc(O)cc(C)c1C[C@H](N)C(=O)N[C@H](CCCNC(=N)N)C(=O)N[C@@H](Cc1ccccc1)C(=O)NCCC(=O)N[C@@H](CCCN1CCC(Cc2ccccc2)CC1)C(=O)N[C@@H](Cc1ccccc1)C(N)=O [DP0019, H-Dmt-D-Arg-Phe-β-Ala-Bpa-Phe-NH2] (HELM PEPTIDE1{[Cc1cc(O)cc(C)c1C[C@H](N)C(=O)[*:2]].[dR].F.[bAla].[O=C([C@H](CCCN1CCC(Cc2ccccc2)CC1)N[*:1])[*:2]].F.[am]}$$$$V2.0)	40 to 400	4 ± 0.4	101 ± 1	162	53	40 to 400	–	–	–	–
Cc1cc(O)cc(C)c1C[C@H](N)C(=O)N[C@H](CCCNC(=N)N)C(=O)N[C@@H](Cc1ccccc1)C(=O)N(C)CC(=O)N[C@@H](CCCN1CCC(Cc2ccccc2)CC1)C(=O)N[C@H](C(N)=O)C(C)C [DP0025, H-Dmt-D-Arg-Phe-N(Me)Gly-Bpa-Val-NH2] (HELM PEPTIDE1{[Cc1cc(O)cc(C)c1C[C@H](N)C(=O)[*:2]].[dR].F.[Sar].[O=C([C@H](CCCN1CCC(Cc2ccccc2)CC1)N[*:1])[*:2]].V.[am]}$$$$V2.0)	–	7.1	110	~50	~114	–	–	–	–	–
Cc1cc(O)cc(C)c1C[C@H](N)C(=O)N[C@H](CCCNC(=N)N)C(=O)N[C@H]1Cc2ccccc2CN(CCC(=O)N[C@@H](CCCN2CCc3ccccc3C2)C(=O)N[C@@H](Cc2ccccc2)C(N)=O)C1=O [DP0026, H-Dmt-D-Arg-Aba-β-Ala-THIQ-Phe-NH2]	–	2.4	98	–	~50	–	–	–	–	–
Cc1cc(O)cc(C)c1C[C@H](N)C(=O)N[C@H](CCCNC(=N)N)C(=O)N[C@H]1Cc2ccccc2CN(CCC(=O)N[C@H](CCCN2CCC(Cc3ccccc3)CC2)C(=O)N[C@@H](Cc2ccccc2)C(N)=O)C1=O [DP0027, H-Dmt-D-Arg-Aba-β-Ala-D-Bpa-Phe-NH2]	–	13.6	95	~180	~68	–	–	–	–	–
Cc1cc(O)cc(C)c1C[C@H](N)C(=O)N[C@H](CCCN)C(=O)N[C@H]1Cc2ccccc2CN(CCC(=O)N[C@@H](CCCN2CCC(Cc3ccccc3)CC2)C(=O)N[C@@H](Cc2ccccc2)C(N)=O)C1=O [DP0028, H-Dmt-D-Orn-Aba-β-Ala-Bpa-Phe-NH2] (H-[Dmt][dOrn][X1][Nva(5-(4-Bn-piperidin-1-yl))]F-NH2)	–	40.4	75	–	–	–	significant	non-detectable	–	–
Cc1cc(O)cc(C)c1C[C@H](N)C(=O)N[C@H](CCCCN)C(=O)N[C@H]1Cc2ccccc2CN(CCC(=O)N[C@@H](CCCN2CCC(Cc3ccccc3)CC2)C(=O)N[C@@H](Cc2ccccc2)C(N)=O)C1=O [DP0029, H-Dmt-D-Lys-Aba-β-Ala-Bpa-Phe-NH2] (H-[Dmt][dK][X1][Nva(5-(4-Bn-piperidin-1-yl))]F-NH2)	–	25.7	72	–	–	–	significant	non-detectable	–	–
Cc1cc(O)cc(C)c1C[C@H](N)C(=O)N[C@H](CCCNC(=N)N)C(=O)N[C@@H](Cc1ccccc1)C(=O)N(C)[C@H](C)C(=O)N[C@@H](CCCN1CCC(Cc2ccccc2)CC1)C(=O)N[C@@H](Cc1ccccc1)C(N)=O [DP0030, H-Dmt-D-Arg-Phe-N(Me)-D-Ala-Bpa-Phe-NH2] (H-[Dmt][dR]F[dNMeA][Nva(5-(4-Bn-piperidin-1-yl))]F-NH2)	–	27.7	111	~150	~85	–	–	–	–	–
N=C(N)NCCC[C@@H](NC(=O)[C@@H]1Cc2ccc(O)cc2CN1)C(=O)N[C@H]1Cc2ccccc2CN(CCC(=O)N[C@@H](CCCN2CCC(Cc3ccccc3)CC2)C(=O)N[C@@H](Cc2ccccc2)C(N)=O)C1=O [DP0031, 7-OH-Tic-D-Arg-Aba-β-Ala-Bpa-Phe-NH2] (H-[Tic(7-OH)][dR][X1][Nva(5-(4-Bn-piperidin-1-yl))]F-NH2; N-terminus assumed)	–	3600	46	–	~40	–	–	–	> 500	–
Cc1cc(O)cc(C)c1C[C@H](NC(=N)N)C(=O)N[C@H](CCCNC(=N)N)C(=O)N[C@H]1Cc2ccccc2CN(CCC(=O)N[C@@H](CCCN2CCC(Cc3ccccc3)CC2)C(=O)N[C@@H](Cc2ccccc2)C(N)=O)C1=O [DP0032, Guanidyl-Dmt-D-Arg-Aba-β-Ala-Bpa-Phe-NH2]	–	–	63	–	–	–	significant	non-detectable	–	12.6
Cc1cc(O)cc(C)c1C[C@H](N)C(=O)N[C@H](CCCCNC(=N)N)C(=O)N[C@H]1Cc2ccccc2CN(CCC(=O)N[C@@H](CCCN2CCC(Cc3ccccc3)CC2)C(=O)N[C@@H](Cc2ccccc2)C(N)=O)C1=O [DP0033, H-Dmt-D-hArg-Aba-β-Ala-Bpa-Phe-NH2] (H-[Dmt][d(hArg)][X1][Nva(5-(4-Bn-piperidin-1-yl))]F-NH2)	–	24.9	41	–	–	–	significant	non-detectable	–	–
Cc1cc(O)cc(C)c1C[C@H](N)C(=O)N[C@H](CCCCNC(=O)c1cccnc1)C(=O)N[C@H]1Cc2ccccc2CN(CCC(=O)N[C@@H](CCCN2CCC(Cc3ccccc3)CC2)C(=O)N[C@@H](Cc2ccccc2)C(N)=O)C1=O [DP0034, H-Dmt-D-Lys(Nic)-Aba-β-Ala-Bpa-Phe-NH2] (H-[Dmt][dK](Nicotinoyl)[X1][Nva(5-(4-Bn-piperidin-1-yl))]F-NH2)	–	3.9	92	–	~18	–	–	–	5 to 50	–
